Where two headings read alike, the source gives them in different places.
Tested on: SARS-CoV-2
Experiment: Plaque assay, anti-SARS-CoV-2 activity in Vero E6 cells
Assay type: cell-based, SARS-CoV-2 (hCoV-19/Taiwan/NTU13/2020)
Settings: for average percentage of suppression of SARS-CoV-2 replication / plaque reduction compared to the negative control groups (FIG. 13): Vero E6 cells; for average percentage of suppression of SARS-CoV-2 replication: 5 days of incubation; for EC50: Severe acute respiratory syndrome coronavirus 2, Vero C1008, read-out: EC50 (minimal concentration required to reduce 50% of plaque count); for plaque reduction compared to the negative control groups (FIG. 13): at least 10 μM

Row | Compound | average percentage of suppression of SARS-CoV-2 replication (10 μM) [%] | average percentage of suppression of SARS-CoV-2 replication (40 μM) [%] | EC50 [µM] | plaque reduction compared to the negative control groups (FIG. 13) | EC50 (SARS-CoV-2 infected Vero E6 cells, regression analysis of dose-response curves) [µM]
1 | CC(Cc1ccc(O)cc1)NCC(O)c1cc(O)cc(O)c1 (stereo not shown) [Fenoterol, 5-[1-hydroxy-2-[1-(4-hydroxyphenyl)propan-2-ylamino]ethyl]benzene-1,3-diol] | 17.0 | 68.9 | 30 | effective in suppressing SARS-CoV-2 replication | –
2 | CCCCCN=C(N)N/N=C/c1c[nH]c2ccc(OC)cc12 [Tegaserod, 1-[(E)-(5-methoxy-1H-indol-3-yl)methylideneamino]-2-pentylguanidine] | 54.3 | – | – | effective in suppression SARS-CoV-2 replication | < 10
